Laboratory results: patent US20080009418A1, “Selective Inhibitors” (Alchemia LTD., priority 2004, published 2008)

Legend:
[1] = molecular target: T1, Human δ-opioid (DOP) (Homo sapiens, UniProt P41143); test: Radioligand binding, human δ-opioid (DOP) membranes, FlashPlate, [3H]-Bremazocine; details: compound at 10 μM; [3H]-Bremazocine
T1 construct: purchased Perkin Elmer Biosignal
In short: (§1)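 Cloned human receptor membranes were coated onto FlashPlate wells and incubated with radioligand and compound (added from a 0.5 mM DMSO daughter plate) for 1 hour at room temperature in the dark. Scintillation counting gave percent inhibition, with DMSO defining total and reference ligand defining non-specific binding.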

[2] = molecular target: T2, Human κ-Opioid (KOP) (Homo sapiens, UniProt P41145); test: Radioligand binding, human κ-opioid (KOP) membranes, filtration, [3H]-Diprenorphine; details: compound at 10 μM; [3H]-Diprenorphine
T2 construct: purchased Perkin Elmer Biosignal
T2 sequence (P41145 whole entry): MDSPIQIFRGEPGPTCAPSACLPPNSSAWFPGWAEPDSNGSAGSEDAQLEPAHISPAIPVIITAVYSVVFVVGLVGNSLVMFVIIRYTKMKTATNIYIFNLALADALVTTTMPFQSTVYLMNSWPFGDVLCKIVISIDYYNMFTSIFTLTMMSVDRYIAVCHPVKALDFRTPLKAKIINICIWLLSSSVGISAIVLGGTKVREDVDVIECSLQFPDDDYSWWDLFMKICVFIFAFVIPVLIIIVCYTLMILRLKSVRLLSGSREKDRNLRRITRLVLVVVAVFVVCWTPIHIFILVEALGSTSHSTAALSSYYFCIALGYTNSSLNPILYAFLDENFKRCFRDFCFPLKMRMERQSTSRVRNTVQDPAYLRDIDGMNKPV
In short: (§2)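 Filtration binding on cloned human receptor membranes (1 Unit/well), [125I]-Substance P for NK1 and [3H]-Diprenorphine for KOP, 1 h at room temperature. Filters PEI-presoaked, washed with cold 50 mM Tris-HCl pH 7.4, counted by scintillation; percent inhibition calculated, reference ligand defining non-specific binding.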

[3] = molecular target: T3, Human Melanocortin (MC3) (Homo sapiens, UniProt P41968); test: Radioligand binding, human melanocortin MC3 membranes, FlashPlate, [125I]-NDP-αMSH; details: compound at 10 μM; [125I]-NDP-αMSH
T3 construct: purchased Perkin Elmer Biosignal
T3 sequence (P41968 whole entry): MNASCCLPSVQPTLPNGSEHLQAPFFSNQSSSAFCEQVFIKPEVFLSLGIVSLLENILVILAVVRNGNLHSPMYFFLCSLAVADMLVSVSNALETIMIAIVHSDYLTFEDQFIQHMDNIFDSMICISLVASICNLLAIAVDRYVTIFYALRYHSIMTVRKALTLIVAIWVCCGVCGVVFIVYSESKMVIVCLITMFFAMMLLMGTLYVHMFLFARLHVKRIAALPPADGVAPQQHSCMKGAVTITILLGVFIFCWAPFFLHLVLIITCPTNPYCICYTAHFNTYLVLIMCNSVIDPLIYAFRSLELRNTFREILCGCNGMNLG
In short: as §1

[4] = molecular target: T4, Human Melanocortin (MC4) (Homo sapiens, UniProt P32245); test: Radioligand binding, human melanocortin MC4 membranes, FlashPlate, [125I]-NDP-αMSH; details: compound at 10 μM; [125I]-NDP-αMSH
T4 construct: purchased Perkin Elmer Biosignal
T4 sequence (P32245 whole entry): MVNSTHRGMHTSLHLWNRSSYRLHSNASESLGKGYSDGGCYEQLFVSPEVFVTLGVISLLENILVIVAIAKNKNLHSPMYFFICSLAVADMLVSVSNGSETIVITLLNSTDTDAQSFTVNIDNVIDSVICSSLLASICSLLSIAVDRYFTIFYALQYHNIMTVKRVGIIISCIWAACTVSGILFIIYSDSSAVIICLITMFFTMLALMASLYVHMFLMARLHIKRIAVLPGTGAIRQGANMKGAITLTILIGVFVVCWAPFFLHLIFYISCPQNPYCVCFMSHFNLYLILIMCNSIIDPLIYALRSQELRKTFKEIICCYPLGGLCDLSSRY
In short: as §1

[5] = molecular target: T5, Human melanocortin (MC5) (Homo sapiens, UniProt P33032); test: Radioligand binding, human melanocortin MC5 membranes, FlashPlate, [125I]-NDP-αMSH; details: compound at 10 μM; [125I]-NDP-αMSH
T5 construct: purchased Perkin Elmer Biosignal
T5 sequence (P33032 whole entry): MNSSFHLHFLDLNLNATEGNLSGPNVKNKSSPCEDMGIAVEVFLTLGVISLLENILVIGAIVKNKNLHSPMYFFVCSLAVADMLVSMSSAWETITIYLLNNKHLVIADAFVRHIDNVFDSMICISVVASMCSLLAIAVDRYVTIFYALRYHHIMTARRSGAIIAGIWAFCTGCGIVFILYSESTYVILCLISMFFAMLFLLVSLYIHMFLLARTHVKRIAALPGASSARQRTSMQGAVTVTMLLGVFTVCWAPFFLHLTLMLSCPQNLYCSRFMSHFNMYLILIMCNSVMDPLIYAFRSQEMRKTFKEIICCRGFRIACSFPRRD
In short: as §1

[6] = molecular target: T6, Human melanin-concentrating hormone (MCH1) (Homo sapiens, UniProt Q99705); test: Radioligand binding, human melanin-concentrating hormone MCH1 membranes, FlashPlate, [125I]-S36057; details: compound at 10 μM; [125I]-S36057
T6 construct: purchased Perkin Elmer Biosignal
T6 sequence (Q99705 whole entry): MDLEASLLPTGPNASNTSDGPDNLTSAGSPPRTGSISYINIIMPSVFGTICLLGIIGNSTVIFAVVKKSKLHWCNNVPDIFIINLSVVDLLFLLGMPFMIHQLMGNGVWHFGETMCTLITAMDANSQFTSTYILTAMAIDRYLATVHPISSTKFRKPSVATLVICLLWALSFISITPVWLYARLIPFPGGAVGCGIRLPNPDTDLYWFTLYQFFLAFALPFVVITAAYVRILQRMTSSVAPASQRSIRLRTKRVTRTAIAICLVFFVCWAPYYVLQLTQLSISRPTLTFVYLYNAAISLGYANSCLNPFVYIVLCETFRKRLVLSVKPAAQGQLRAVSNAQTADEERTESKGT
In short: as §1

[7] = molecular target: T7, Human μ-opioid (MOP) (Homo sapiens, UniProt P35372); test: Radioligand binding, human μ-opioid (MOP) membranes, FlashPlate, [3H]-Naloxone; details: compound at 10 μM; [3H]-Naloxone
T7 construct: purchased Perkin Elmer Biosignal
T7 sequence (P35372 whole entry): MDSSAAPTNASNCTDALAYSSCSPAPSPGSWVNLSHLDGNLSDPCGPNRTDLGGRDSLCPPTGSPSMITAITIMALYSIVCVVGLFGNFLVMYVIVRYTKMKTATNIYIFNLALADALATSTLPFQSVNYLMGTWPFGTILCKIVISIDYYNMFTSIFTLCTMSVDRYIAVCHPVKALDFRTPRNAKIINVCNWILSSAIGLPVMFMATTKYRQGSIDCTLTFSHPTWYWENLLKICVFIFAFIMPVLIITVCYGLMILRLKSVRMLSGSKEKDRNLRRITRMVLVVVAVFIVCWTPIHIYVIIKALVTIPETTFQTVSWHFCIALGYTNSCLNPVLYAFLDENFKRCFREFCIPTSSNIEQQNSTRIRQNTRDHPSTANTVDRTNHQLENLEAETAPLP
In short: as §1

[8] = molecular target: T8, Human neurokinin (NK1) (Homo sapiens, UniProt P25103); test: Radioligand binding, human neurokinin NK1 membranes, filtration, [125I]-Substance P; details: compound at 10 μM; [125I]-Substance P
T8 construct: purchased Perkin Elmer Biosignal
T8 sequence (P25103 whole entry): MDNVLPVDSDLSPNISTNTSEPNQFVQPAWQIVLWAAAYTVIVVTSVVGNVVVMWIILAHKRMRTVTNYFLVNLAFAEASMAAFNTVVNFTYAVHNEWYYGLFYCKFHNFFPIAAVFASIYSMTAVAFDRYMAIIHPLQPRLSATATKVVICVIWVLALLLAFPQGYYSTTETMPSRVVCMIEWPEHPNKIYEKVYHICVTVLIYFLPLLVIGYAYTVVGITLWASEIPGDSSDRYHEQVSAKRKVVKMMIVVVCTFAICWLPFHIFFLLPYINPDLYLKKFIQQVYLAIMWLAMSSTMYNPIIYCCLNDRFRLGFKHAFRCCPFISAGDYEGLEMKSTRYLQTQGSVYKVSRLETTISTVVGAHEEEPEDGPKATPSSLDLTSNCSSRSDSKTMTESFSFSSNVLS
In short: as §2

[9] = molecular target: T9, Human neuropeptide Y (NPY-Y1) (Homo sapiens, UniProt P25929); test: Radioligand binding, human neuropeptide Y NPY-Y1 membranes, FlashPlate, [125I]-PYY; details: compound at 10 μM; [125I]-PYY
T9 construct: purchased Perkin Elmer Biosignal
T9 sequence (P25929 1-384): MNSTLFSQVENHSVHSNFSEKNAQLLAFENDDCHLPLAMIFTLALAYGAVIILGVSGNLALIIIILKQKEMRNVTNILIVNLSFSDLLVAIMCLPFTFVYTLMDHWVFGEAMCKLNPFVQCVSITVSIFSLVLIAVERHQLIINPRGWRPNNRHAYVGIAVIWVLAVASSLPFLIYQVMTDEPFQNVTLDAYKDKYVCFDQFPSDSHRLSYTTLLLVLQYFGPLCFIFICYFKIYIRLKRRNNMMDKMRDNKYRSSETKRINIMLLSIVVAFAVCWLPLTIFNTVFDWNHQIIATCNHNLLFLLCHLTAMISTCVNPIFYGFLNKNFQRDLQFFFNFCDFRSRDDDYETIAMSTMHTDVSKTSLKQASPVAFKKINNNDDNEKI
In short: as §1

[10] = molecular target: T10, Human opioid (ORL1) (Homo sapiens, UniProt P41146); test: Radioligand binding, human opioid ORL1 membranes, FlashPlate, [125I]-Nociceptin; details: compound at 10 μM; [125I]-Nociceptin
T10 construct: purchased Perkin Elmer Biosignal
T10 sequence (P41146 whole entry): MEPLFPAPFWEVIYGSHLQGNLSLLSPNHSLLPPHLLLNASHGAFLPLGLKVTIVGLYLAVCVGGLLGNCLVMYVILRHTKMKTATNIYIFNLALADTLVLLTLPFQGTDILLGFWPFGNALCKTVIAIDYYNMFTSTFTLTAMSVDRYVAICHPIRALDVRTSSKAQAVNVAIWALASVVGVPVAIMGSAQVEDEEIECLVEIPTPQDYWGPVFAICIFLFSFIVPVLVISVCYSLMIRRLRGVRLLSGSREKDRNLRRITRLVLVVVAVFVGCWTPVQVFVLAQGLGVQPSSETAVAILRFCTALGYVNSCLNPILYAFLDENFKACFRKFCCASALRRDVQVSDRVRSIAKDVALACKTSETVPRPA
In short: as §1

[11] = molecular target: T11, Mouse urotensin (mUR2) (Mus musculus, UniProt Q8VIH9); test: Radioligand binding, mouse urotensin mUR2 membranes, FlashPlate, [125I]-Urotensin II; details: compound at 10 μM; [125I]-Urotensin II
T11 construct: purchased Perkin Elmer Biosignal
T11 sequence (Q8VIH9 1-385): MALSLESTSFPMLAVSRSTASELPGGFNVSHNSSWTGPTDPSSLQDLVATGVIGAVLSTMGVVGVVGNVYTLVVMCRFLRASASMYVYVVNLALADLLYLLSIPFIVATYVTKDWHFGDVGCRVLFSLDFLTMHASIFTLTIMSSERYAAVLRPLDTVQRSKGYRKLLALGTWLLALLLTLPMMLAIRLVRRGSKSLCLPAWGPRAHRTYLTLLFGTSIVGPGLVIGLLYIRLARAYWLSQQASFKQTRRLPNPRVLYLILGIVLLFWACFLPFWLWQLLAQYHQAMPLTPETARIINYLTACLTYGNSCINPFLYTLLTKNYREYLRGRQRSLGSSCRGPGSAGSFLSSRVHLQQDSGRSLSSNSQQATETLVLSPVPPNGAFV
In short: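 Cloned mouse urotensin (mUR2) receptor membranes from Perkin Elmer Biosignal were immobilized in FlashPlate microplates using a proprietary coating. Each well got 19.5 μl buffer, then 0.5 μl of DMSO, reference ligand, or compound. Adding 5 μl of [125I]-Urotensin II, diluted to 5× final concentration in binding buffer, started binding. Plates were sealed with TopSeal-A and incubated 1 hour at room temperature in the dark. Wells were counted for 30 seconds each on a TopCount after a 60-second delay, and percentage inhibition was calculated.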

T1 sequence (P41143 whole entry): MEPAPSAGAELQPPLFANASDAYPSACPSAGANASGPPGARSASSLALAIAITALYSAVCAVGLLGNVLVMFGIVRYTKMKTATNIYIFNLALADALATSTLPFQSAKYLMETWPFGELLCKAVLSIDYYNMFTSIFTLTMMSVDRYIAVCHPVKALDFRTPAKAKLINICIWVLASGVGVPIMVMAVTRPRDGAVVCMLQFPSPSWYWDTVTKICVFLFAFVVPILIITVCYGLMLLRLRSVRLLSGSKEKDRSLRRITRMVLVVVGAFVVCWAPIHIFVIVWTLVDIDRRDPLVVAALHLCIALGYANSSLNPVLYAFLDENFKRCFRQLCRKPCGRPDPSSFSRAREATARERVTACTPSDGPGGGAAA

In the case of `COCC1OC(OCc2ccccc2)C(NC(=O)CCCNC(=N)N)C(OCc2ccccc2)C1O` (stereo not drawn) [compound 175], the “A1 radioligand binding, percentage inhibition” value [1] is reported as “− (“−” indicates less than 50% inhibition at 10 μM)”, the “A2 radioligand binding, percentage inhibition” value [2] is reported as “− (“−” indicates less than 50% inhibition at 10 μM)” and the “A3 radioligand binding, percentage inhibition” value [3] is reported as “− (“−” indicates less than 50% inhibition at 10 μM)”. For the same molecule, the “A4 radioligand binding, percentage inhibition” value [4] was “− (“−” indicates less than 50% inhibition at 10 μM)”, the “A5 radioligand binding, percentage inhibition” value [5] was “− (“−” indicates less than 50% inhibition at 10 μM)” and the “A6 radioligand binding, percentage inhibition” value [6] was “− (“−” indicates less than 50% inhibition at 10 μM)”. The “A7 radioligand binding, percentage inhibition” value [7] was “− (“−” indicates less than 50% inhibition at 10 μM)”, the “A8 radioligand binding, percentage inhibition” value [8] was “+ (“+” indicates greater than 50% inhibition at 10 μM)” and the “A9 radioligand binding, percentage inhibition” value [9] was “− (“−” indicates less than 50% inhibition at 10 μM)”. For the same molecule, the “A10 radioligand binding, percentage inhibition” value [10] was “− (“−” indicates less than 50% inhibition at 10 μM)” and the “A11 radioligand binding, percentage inhibition” value [11] was “− (“−” indicates less than 50% inhibition at 10 μM)”.

With `CSC1OC(COCc2ccc(-c3ccccc3)cc2)C(O)C(OCc2ccc3ccccc3c2)C1NC(=O)CCCN` (stereo not drawn) [compound 315] the “A1: inhibition of radioligand binding, human δ-opioid (DOP)” value [1] was “− (“−” indicates less than 50% inhibition at 10 μM)”, the “A2: inhibition of radioligand binding, human κ-opioid (KOP)” value [2] was “− (“−” indicates less than 50% inhibition at 10 μM)” and the “A3: inhibition of radioligand binding, human melanocortin (MC3)” value [3] was “− (“−” indicates less than 50% inhibition at 10 μM)”. For the same molecule, the “A4: inhibition of radioligand binding, human melanocortin (MC4)” value [4] was “− (“−” indicates less than 50% inhibition at 10 μM)”, the “A5: inhibition of radioligand binding, human melanocortin (MC5)” value [5] was “− (“−” indicates less than 50% inhibition at 10 μM)” and the “A6: inhibition of radioligand binding, human melanin-concentrating hormone (MCH1)” value [6] was “− (“−” indicates less than 50% inhibition at 10 μM)”. The “A7: inhibition of radioligand binding, human μ-opioid (MOP)” value [7] was “− (“−” indicates less than 50% inhibition at 10 μM)”, the “A8: inhibition of radioligand binding, human neurokinin (NK1)” value [8] was “+ (“+” indicates greater than 50% inhibition at 10 μM)” and the “A9: inhibition of radioligand binding, human neuropeptide Y (NPY-Y1)” value [9] was “− (“−” indicates less than 50% inhibition at 10 μM)”. The “A10: inhibition of radioligand binding, human opioid (ORL1)” value [10] was “− (“−” indicates less than 50% inhibition at 10 μM)” and the “A11: inhibition of radioligand binding, mouse urotensin (mUR2)” value [11] was “− (“−” indicates less than 50% inhibition at 10 μM)”.

In the case of `CO[C@H]1[C@H](O)[C@@H](COCc2ccc(-c3ccccc3)cc2)OC(OCCc2ccccc2)[C@@H]1NC(=O)CNC(=N)N` (stereo partly drawn) [compound 109], the “A1 radioligand binding, percentage inhibition” value [1] is reported as “− (“−” indicates less than 50% inhibition at 10 μM)”, the “A2 radioligand binding, percentage inhibition” value [2] is reported as “− (“−” indicates less than 50% inhibition at 10 μM)” and the “A3 radioligand binding, percentage inhibition” value [3] is reported as “+ (“+” indicates greater than 50% inhibition at 10 μM)”. For the same molecule, the “A4 radioligand binding, percentage inhibition” value [4] was “+ (“+” indicates greater than 50% inhibition at 10 μM)”, the “A5 radioligand binding, percentage inhibition” value [5] was “+ (“+” indicates greater than 50% inhibition at 10 μM)” and the “A6 radioligand binding, percentage inhibition” value [6] was “− (“−” indicates less than 50% inhibition at 10 μM)”. The “A7 radioligand binding, percentage inhibition” value [7] was “− (“−” indicates less than 50% inhibition at 10 μM)”, the “A8 radioligand binding, percentage inhibition” value [8] was “− (“−” indicates less than 50% inhibition at 10 μM)” and the “A9 radioligand binding, percentage inhibition” value [9] was “− (“−” indicates less than 50% inhibition at 10 μM)”. For the same molecule, the “A10 radioligand binding, percentage inhibition” value [10] was “− (“−” indicates less than 50% inhibition at 10 μM)” and the “A11 radioligand binding, percentage inhibition” value [11] was “− (“−” indicates less than 50% inhibition at 10 μM)”.
